Calls of active or inactive are those of the source.
Columns and labels:
[1] = target: Neurotensin receptor type 1 (Homo sapiens, UniProt P30989); format: functional;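 further: Image-based confirmatory dose-response assay measuring agonist activity at NTR1; NTR1-expressing U2OS osteosarcoma cells imaged for beta-arrestin GFP spot formation; agonist potency where compounds increase beta-arrestin recruitment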
[2] = non-specific 3'UTR reporter inhibition in Clone20-Shn3RL – cell-based, Renilla luciferase, cherry-picked, counter-screen for Shn3 inhibitor project, dose response (AID 624133); format: functional
[3] = target: Beta-galactosidase (Escherichia coli, UniProt Q8VNN2); assay: detection-enzyme interference by beta-gal modulators – biochemical, E. coli enzyme, set 3, artefact control for CCR6 antagonist project, dose response (AID 504712); format: functional
Beta-galactosidase, sequence (Q8VNN2 whole entry): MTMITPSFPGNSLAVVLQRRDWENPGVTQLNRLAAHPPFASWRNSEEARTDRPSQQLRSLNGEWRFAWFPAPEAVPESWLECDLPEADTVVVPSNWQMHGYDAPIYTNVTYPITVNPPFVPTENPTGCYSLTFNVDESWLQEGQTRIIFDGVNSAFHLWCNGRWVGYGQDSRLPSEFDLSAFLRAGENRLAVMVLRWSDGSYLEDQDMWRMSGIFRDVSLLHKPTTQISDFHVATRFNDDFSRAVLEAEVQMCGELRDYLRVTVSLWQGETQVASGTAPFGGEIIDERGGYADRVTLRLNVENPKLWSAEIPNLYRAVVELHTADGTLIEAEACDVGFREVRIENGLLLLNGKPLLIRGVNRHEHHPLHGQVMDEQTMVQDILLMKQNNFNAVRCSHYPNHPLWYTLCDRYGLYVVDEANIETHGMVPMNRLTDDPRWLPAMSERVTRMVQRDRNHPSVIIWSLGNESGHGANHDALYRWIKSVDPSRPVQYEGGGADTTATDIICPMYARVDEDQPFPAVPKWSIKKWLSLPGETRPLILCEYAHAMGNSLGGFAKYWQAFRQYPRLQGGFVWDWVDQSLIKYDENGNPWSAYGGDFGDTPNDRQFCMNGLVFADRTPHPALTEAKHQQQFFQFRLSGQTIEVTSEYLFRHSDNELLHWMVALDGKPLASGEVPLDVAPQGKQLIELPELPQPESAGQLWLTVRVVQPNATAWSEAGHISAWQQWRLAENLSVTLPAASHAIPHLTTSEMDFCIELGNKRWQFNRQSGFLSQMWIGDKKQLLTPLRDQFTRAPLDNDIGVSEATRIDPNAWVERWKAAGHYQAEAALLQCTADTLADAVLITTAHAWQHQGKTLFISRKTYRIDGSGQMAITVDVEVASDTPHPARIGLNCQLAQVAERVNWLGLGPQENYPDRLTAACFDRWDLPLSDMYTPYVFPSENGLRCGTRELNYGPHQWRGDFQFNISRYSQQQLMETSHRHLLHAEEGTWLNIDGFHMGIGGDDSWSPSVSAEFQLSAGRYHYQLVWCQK

[4] = target: T1, SUMO-activating enzyme (Homo sapiens, UniProt Q9UBT2); assay: blockers of SAE1/SAE2–UBC9 SUMO transfer – biochemical, HTRF, uHTS, primary screen (AID 2006); format: protein-complex assay
T1 sequence (Q9UBE0 whole entry): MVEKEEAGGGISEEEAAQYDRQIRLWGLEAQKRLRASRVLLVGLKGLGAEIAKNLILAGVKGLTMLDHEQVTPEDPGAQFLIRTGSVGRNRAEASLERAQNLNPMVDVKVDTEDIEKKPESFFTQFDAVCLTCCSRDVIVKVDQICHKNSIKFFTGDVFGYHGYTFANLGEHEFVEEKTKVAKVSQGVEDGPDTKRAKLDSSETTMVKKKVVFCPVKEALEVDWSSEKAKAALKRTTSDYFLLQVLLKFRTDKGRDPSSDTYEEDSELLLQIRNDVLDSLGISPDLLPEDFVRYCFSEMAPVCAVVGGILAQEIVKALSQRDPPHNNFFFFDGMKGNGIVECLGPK
T1 sequence (Q9UBT2 whole entry): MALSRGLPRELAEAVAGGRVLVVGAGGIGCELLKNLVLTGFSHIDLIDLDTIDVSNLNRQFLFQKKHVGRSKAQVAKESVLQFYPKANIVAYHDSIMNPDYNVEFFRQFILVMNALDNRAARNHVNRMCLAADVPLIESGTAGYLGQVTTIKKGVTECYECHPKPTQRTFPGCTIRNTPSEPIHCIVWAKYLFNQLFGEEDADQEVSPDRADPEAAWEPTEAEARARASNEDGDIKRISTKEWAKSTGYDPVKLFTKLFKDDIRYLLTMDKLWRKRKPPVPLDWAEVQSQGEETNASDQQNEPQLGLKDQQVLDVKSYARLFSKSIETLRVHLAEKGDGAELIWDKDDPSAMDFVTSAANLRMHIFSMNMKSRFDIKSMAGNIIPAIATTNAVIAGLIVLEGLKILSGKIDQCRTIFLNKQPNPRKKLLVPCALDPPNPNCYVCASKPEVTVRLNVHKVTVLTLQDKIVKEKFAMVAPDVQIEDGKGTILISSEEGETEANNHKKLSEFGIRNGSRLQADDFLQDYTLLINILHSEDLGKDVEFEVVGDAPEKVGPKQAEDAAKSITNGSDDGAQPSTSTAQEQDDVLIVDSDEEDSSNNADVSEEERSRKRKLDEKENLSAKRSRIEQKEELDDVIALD

[5] = Luminescence Cell-Based Dose Retest to Confirm Inhibitors of Cancer Stem Cells. [Related pubchem assays (depositor defined):AID2717, AID2721]; format: functional; conditions: Homo sapiens
[6] = reduction of Shn3 3'UTR-driven luciferase in osteoblasts – cell-based, Clone20 osteoblasts, firefly luciferase, cherry-picked, dose response (AID 624132); format: functional;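 further: firefly luciferase luminescence from reporter carrying the Shn3 3'UTR in osteoblasts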
[7] = IC50 of Artemis nuclease activity blockers – biochemical, fluorescence intensity, dose response (AID 720701); format: functional;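 further: Artemis endonuclease enzyme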
[8] = target: T1, SUMO-activating enzyme; assay: blockers of UBC9-mediated SUMO conjugation – biochemical, AlphaScreen, SUMOylation inhibitor project, confirmation (AID 2018); format: functional
[9] = target: C-C chemokine receptor type 6 (Homo sapiens, UniProt P51684); assay: antagonism of CCR6 beta-arrestin recruitment – cell-based, luminescent beta-arrestin readout, dose response (AID 504728); format: functional
C-C chemokine receptor type 6, sequence (P51684 whole entry, the tested form may be a part): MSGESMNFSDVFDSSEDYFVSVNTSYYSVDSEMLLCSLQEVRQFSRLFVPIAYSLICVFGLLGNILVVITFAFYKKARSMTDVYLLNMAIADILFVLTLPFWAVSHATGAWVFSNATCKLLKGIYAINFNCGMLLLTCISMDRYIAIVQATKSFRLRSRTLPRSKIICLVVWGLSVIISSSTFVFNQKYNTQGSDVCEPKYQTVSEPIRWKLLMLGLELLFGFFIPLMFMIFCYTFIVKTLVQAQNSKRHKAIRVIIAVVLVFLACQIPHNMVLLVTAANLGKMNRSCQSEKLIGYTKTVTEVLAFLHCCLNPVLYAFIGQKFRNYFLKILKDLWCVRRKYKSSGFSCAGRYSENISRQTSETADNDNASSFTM

[10] = target: T2, Type-1 angiotensin II receptor (Homo sapiens, UniProt P30556); assay: agonist activity at AGTR1 – cell-based, uHTS hits, selectivity assay for APJ receptor agonist project, dose response (AID 488865); format: functional;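 further: beta-arrestin recruitment to AT1 measured by enzyme fragment complementation luminescence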
T2 sequence (P30556 whole entry): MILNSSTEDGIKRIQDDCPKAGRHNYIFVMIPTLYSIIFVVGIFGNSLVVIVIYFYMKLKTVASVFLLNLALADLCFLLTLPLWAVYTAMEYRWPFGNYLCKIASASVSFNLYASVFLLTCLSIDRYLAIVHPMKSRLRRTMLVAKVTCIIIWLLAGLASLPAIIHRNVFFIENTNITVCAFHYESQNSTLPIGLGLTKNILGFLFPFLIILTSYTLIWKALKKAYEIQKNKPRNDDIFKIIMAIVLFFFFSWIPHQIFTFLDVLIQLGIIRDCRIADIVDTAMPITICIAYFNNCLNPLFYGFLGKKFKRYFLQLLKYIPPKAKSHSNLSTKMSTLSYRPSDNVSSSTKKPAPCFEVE

[11] = target: G-protein coupled receptor 55 (Homo sapiens, UniProt Q9Y2T6); assay: selective activators of receptor GPR55 – imaging, U2OS cells, beta-arrestin-GFP redistribution, primary screen (AID 1961); format: functional
G-protein coupled receptor 55, sequence (Q9Y2T6 whole entry): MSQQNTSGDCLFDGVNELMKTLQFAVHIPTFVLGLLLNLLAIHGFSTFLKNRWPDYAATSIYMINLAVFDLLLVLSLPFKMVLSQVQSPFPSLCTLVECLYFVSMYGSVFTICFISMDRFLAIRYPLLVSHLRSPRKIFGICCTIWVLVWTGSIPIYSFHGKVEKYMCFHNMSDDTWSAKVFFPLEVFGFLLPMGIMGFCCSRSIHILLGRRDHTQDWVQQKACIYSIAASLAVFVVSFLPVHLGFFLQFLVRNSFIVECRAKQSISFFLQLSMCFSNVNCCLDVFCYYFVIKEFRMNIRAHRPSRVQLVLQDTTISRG

[12] = target: T3, RNA-editing ligase 1, mitochondrial (Trypanosoma brucei brucei, UniProt P86926); assay: inhibition of trypanosome RNA editing ligase – biochemical, fluorescence, Trypanosoma brucei, dose response (AID 1117295); format: functional
T3 sequence (P86926 whole entry): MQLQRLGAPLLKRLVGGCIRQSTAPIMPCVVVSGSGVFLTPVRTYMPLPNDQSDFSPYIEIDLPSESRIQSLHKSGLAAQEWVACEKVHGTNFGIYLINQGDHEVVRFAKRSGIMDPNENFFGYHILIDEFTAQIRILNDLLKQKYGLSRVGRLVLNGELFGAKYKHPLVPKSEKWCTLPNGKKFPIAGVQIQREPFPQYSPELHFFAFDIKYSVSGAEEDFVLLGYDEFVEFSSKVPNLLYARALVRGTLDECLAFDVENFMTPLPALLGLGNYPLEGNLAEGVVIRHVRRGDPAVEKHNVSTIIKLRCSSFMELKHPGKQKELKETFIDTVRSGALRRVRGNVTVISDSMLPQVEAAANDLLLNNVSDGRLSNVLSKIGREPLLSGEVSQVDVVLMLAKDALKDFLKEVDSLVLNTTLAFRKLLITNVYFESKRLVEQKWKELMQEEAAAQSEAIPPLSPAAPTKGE

[13] = target: T4, Short transient receptor potential channel 4 (Mus musculus, UniProt Q9QUQ5); assay: block of DAMGO-driven TRPC4 calcium entry – cell-based, HEK293 TRPC4/mu-opioid, Fluo-4 calcium, dose response (AID 434942); format: functional;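 further: potency of inhibitors blocking the TRPC4 calcium response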
T4 sequence (Q9QUQ5 whole entry): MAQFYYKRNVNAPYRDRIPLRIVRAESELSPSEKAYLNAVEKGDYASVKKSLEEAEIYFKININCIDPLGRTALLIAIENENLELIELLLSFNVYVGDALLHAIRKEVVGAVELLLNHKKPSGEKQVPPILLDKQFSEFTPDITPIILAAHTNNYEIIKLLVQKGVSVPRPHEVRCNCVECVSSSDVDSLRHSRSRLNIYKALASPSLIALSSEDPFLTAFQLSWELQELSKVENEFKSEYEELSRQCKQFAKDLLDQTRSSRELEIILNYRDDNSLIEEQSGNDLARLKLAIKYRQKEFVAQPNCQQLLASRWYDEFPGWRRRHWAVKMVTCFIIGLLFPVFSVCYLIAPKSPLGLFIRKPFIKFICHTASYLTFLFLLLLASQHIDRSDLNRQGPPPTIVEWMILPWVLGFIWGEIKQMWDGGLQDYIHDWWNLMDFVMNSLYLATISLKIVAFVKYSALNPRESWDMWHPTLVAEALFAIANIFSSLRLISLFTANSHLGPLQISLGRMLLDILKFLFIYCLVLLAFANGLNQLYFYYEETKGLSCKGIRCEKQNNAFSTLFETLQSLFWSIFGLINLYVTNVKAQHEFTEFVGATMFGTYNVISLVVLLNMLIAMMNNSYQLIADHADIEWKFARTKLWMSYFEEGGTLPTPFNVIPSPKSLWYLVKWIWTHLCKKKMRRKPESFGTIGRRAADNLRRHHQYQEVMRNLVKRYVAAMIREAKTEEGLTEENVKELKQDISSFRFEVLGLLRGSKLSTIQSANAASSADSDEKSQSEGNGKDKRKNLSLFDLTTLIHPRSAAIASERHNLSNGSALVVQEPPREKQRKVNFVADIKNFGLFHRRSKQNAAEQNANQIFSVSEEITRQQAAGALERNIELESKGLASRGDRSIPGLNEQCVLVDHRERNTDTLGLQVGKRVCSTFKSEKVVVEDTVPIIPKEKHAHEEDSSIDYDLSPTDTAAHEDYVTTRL

[14] = target: DNA repair protein RAD52 homolog (Homo sapiens, UniProt P43351); format: functional, biochemical
DNA repair protein RAD52 homolog, sequence (P43351 whole entry): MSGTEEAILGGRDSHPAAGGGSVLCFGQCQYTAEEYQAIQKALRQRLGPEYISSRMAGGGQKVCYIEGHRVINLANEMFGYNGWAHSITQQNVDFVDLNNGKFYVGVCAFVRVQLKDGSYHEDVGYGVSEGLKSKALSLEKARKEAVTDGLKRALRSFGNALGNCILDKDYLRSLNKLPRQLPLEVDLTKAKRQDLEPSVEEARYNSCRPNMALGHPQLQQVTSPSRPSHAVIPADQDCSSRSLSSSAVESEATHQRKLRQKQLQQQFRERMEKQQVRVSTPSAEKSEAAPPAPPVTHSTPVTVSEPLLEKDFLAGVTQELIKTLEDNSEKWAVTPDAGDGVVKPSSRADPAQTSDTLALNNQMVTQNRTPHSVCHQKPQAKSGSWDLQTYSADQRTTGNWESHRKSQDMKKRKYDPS

[15] = target: T5, Microphthalmia-associated transcription factor (Homo sapiens, UniProt O75030); assay: reducers of TRPM1 reporter luminescence, concentration series – cell-based, SK-MEL-5, cherry-picked, set 3, MITF inhibitor project, dose response (AID 493073); format: functional;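 further: SK-MEL-5 melanoma cells with luciferase driven by the MITF target TRPM1 promoter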
T5 sequence (O75030 whole entry): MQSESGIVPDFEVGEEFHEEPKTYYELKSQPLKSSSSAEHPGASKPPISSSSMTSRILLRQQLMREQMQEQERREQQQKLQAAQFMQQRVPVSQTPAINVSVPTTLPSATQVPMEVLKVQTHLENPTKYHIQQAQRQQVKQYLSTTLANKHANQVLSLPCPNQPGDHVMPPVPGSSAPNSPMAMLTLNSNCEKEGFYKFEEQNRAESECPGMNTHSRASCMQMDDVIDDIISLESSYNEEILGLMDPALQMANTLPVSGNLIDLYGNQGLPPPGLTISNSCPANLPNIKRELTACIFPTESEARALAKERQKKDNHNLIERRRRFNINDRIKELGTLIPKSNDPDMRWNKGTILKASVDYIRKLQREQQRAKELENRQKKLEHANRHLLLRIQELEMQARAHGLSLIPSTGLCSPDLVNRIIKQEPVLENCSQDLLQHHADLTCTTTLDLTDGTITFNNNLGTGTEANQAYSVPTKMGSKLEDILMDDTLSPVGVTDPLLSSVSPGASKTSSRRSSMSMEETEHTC

[16] = decrease of insulin promoter-GFP reporter – imaging, high-content screening, mouse beta cells (AID 1628); format: functional; conditions: MIN6
[17] = target: Likely tRNA 2'-phosphotransferase (Candida albicans (strain SC5314 / ATCC MYA-2876) (Yeast), UniProt Q5A7N4); assay: inhibition of Candida TPT1 enzyme activity – biochemical, fluorescence polarization, dose response (AID 2160)
Likely tRNA 2'-phosphotransferase, sequence (Q5A7N4 whole entry): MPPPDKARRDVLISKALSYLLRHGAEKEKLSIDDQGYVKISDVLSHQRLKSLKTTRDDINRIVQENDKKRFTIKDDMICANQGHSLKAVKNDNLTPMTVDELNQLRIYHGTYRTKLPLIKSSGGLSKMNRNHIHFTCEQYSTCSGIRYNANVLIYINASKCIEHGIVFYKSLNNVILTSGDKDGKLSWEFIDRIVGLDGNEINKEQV

[18] = system: INS1; assay: INS-1E survival protection against cytokine death – cell-based, luminescence, retest, dose response (AID 449756); format: functional; conditions: Rattus norvegicus;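 further: cell death triggered by IL-1 beta plus TNF-alpha plus IFN-gamma mixture; protective hits raise ATP signal compared with cytokine alone wells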
[19] = target: Nonstructural protein 1 (Influenza A virus, UniProt Q194T2); format: functional, Influenza A virus (A/California/07/2009(H1N1))
Nonstructural protein 1, sequence (Q194T2 whole entry): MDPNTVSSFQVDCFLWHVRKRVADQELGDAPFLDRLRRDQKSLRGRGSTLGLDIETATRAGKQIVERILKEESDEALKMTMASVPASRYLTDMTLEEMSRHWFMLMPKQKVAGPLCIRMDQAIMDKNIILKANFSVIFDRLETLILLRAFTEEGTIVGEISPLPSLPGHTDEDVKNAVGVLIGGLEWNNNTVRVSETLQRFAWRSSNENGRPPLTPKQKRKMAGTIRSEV

[20] = HEK-293T viability loss after treatment – luminescence, T-cell screen hits, cytotoxicity control for TCR NF-kB inhibitor project, dose response (AID 489026); format: functional, cell-based;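 further: cells exposed to compound about 14 hours before the viability readout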
[21] = target: Guanyl-specific ribonuclease T1 (Aspergillus oryzae (strain ATCC 42149 / RIB 40), UniProt P00651); assay: inhibition of ribonuclease T1 activity – biochemical, fluorescence polarization, 1536-well, counter-screen for TPT1 inhibitor project, dose response (AID 2167)
Guanyl-specific ribonuclease T1, sequence (P00651 whole entry): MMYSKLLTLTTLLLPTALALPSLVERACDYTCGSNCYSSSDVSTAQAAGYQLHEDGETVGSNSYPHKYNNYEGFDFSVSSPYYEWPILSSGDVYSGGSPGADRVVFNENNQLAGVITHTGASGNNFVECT

[22] = MIN6 cell viability loss – mouse insulinoma, cytotoxicity control, dose response (AID 2122); format: functional;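 further: confirmatory high-throughput counterscreen run to flag cytotoxic compounds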

Neurotensin receptor type 1, sequence (P30989 whole entry): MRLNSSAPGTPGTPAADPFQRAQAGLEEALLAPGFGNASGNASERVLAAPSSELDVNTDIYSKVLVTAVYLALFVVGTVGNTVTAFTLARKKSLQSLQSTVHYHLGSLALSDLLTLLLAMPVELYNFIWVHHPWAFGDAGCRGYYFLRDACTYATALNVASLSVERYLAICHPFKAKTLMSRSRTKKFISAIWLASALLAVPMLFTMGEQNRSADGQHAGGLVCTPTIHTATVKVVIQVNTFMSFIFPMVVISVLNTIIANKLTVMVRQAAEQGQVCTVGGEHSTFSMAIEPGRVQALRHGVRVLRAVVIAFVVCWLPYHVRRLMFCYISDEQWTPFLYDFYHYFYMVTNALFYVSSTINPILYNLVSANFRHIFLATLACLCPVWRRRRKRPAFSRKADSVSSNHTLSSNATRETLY

CC1=NOC(=O)/C1=C\c1ccc(-c2cc(Cl)ccc2Cl)o1
EC50 [1]: 7.5 µM (active) | AC50 [2]: 9.55 µM (active) | IC50 [3]: > 66.6 µM (inactive) | IC50 [4]: 11.5 µM (active) | AC50 [5]: 1.04 µM (active) | AC50 [6]: 5.69 µM (active) | IC50 [7]: > 20 µM (inactive) | IC50 [8]: 4.89 µM (active) | IC50 [9]: > 66.6 µM (inactive) | EC50 [10]: > 100 µM (inactive)

CCN(CC)C(=O)CC(c1ccc2c(c1)OCO2)c1c(OC)cc(OC)c2c(-c3ccccc3)cc(=O)oc12 (configuration not stated)
EC50 [11]: 2.72 µM (active)

CCCCCC[N+](C)(C)CC/C=C1/c2ccccc2Sc2ccc(Cl)cc21
IC50 [12]: > 96.6 µM (inactive) | EC50 [13]: 0.299 µM (active) | AC50 [14]: 10.2 µM (active)

Cn1cc(C(=O)N/N=C/c2c(O)ccc3ccccc23)ccc1=O
AC50 [15]: 2.55 µM (active) | IC50 [16]: 4.33 µM (active) | IC50 [17]: > 55.7 µM (not active) | AC50 [18]: 0.774 µM (active) | IC50 [19]: > 100 µM (active) | IC50 [20]: > 80 µM (inactive) | IC50 [21]: > 55.7 µM (not active) | IC50 [22]: 4.04 µM (active)

From ChEMBL document CHEMBL1201862, “PubChem BioAssay data set” (2004)
